Here are results for one molecule from patent publication US9624211B2, “Anti-cancer compounds” (Board of Regents, The University of Texas System, priority 2013, dated 2017).

One test concerns the target T1, FBW7 (Homo sapiens, UniProt Q969H0).
T1 construct: expressed in transfected cells; host or cells: 293T
Description: In vivo ubiquitination assay, FBW7 substrates. The format is cell-based. Conditions: in the presence of proteasome inhibitor. Here is the method:
(§1) In vivo and in vitro ubiquitination assays were performed as described with modification (Lin et al., 2009; Yang et al., 2009). For in vitro ubiquitination assay, recombinant GST-Akt proteins were expressed, purified and eluted from the bacterial lysates of BL21 competent cells. Flag-Skp2 SCF complex were expressed in 293T cells, immunoprecipitated by anti-Flag antibody, and eluted from Protein A/G beads using Flag peptides according to manufacturers' standard procedures. Purified GST-Akt and Flag-SCF proteins were incubated for 3 h at 37° C. in the absence and presence of Skp2 inhibitor. After incubation, protein mixtures were diluted in E1A Buffer and the supernatant fluid was precleared with Protein A/G beads for 1 h, and immunoprecipitated overnight with anti-Flag antibody, after which Protein A/G beads were added for an additional 1 h. Beads were washed 4 times with E1A Buffer. Proteins were eluted in SDS-sample buffer and subjected to immunoblotting analysis. For in vivo ubiquitination assay, 293T cells were transfected with the indicated plasmids and cultured in the absence or presence of Skp2 inhibitor for 48 h. 6 h before harvest, cells were cultured in the presence of MG132. After cell harvest, cells were lysed by the denatured buffer (6M guanidine-HCl, 0.1M Na2HPO4/NaH2PO4, 10 mM imidazole). […]

Another test relates to β-TRCP. Description: In vivo ubiquitination assay, β-TRCP substrates. The format is cell-based. Conditions: in the presence of proteasome inhibitor. Here is the method: as §1
For test [1], the system named is Skp2 Trp97Ala and Asp98Ala mutants. Description: In vitro binding of compound to GST-Skp2 mutants by LC-MS/MS. Conditions: preexisting Skp2-Skp1 complex. Here is the method:
To corroborate this notion, the in vitro binding assay was performed to compare the binding affinity of compound #25 to WT Skp2 and Skp2 mutants (Trp97Ala and Asp98Ala) using LC-MS/MS analysis. Of note, since the nature of recombinant Skp2 protein was unstable in the absence of Skp1 (Li et al., 2005), the GST-Skp2 WT, GST-Skp2 Trp97Ala and GST-Skp2Asp98Ala mutants subjected to LC-MS/MS analysis were co-expressed, purified and preformed complex with Skp1 (FIG. 10A).

In a further test the test system is prostate cancer cells. Description: Cell apoptosis assay (Annexin-V, flow cytometry). The format is cell-based. As to the method:
Prostate cancer cells were treated with vehicle (DMSO) or Skp2 inhibitor for 3 days, and collected and labeled with Annexin-V-FITC, followed by flow cytometry analysis. The Annexin-V+ and […] cells indicates apoptotic cell population (Q4).

The target of the next test is T2, Skp2 SCF complex (Homo sapiens, UniProt Q13309).
T2 construct: made in house; host or cells: 293T cells; anti-Flag immunoprecipitation, eluted with Flag peptide
Description: In vitro Skp2-mediated Akt ubiquitination assay. The test is classed as biochemical. Conditions: recombinant Akt, FIG. 1H. Here is the method:
as §1

T1 sequence (Q969H0 whole entry, species assumed): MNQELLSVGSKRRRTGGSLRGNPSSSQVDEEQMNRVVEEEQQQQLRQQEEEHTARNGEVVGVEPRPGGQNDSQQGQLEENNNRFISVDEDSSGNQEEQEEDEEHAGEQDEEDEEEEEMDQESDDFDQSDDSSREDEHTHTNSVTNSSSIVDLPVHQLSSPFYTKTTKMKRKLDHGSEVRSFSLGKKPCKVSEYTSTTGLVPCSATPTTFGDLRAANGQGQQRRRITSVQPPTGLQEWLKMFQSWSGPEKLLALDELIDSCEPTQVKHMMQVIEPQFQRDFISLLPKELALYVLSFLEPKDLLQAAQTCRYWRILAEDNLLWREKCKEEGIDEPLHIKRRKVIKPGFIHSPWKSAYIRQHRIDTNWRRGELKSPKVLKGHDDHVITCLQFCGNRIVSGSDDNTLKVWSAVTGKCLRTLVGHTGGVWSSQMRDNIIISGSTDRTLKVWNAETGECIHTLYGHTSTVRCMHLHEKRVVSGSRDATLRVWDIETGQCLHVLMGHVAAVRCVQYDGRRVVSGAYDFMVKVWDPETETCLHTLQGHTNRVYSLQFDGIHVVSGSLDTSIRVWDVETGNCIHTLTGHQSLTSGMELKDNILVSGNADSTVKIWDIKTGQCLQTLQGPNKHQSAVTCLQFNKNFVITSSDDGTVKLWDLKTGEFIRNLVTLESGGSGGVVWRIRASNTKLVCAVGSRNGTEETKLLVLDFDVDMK
T2 sequence (Q13309 whole entry, one chain of several): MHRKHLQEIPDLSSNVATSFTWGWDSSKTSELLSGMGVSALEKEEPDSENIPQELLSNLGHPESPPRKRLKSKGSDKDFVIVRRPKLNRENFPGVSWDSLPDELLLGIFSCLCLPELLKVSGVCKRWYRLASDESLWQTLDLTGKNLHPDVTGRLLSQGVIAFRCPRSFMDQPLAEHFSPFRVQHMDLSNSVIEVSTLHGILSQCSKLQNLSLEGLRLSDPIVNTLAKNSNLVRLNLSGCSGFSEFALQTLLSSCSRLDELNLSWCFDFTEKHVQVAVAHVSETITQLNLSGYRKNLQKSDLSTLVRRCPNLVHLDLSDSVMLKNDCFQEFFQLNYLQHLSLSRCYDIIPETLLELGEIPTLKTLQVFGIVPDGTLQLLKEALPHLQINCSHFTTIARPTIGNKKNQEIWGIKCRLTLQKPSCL

Regarding `CCc1cc2c(=O)c(-c3nc4ccccc4s3)coc2c(CN2CCCCC2)c1O` [compound #25, 3-(1,3-benzothiazol-2-yl)-6-ethyl-7-hydroxy-8-(1-piperidinylmethyl)-4H-chromen-4-one], the “FBW7-mediated ubiquitination (c-Jun, MCL-1)” value at FBW7 is recorded as “no appreciable effect”. Moreover, the “β-TRCP-mediated ubiquitination (β-catenin, Snail, IκBα)” value in the test with β-TRCP is recorded as “no appreciable effect”. Besides, the “binding to Trp97Ala and Asp98Ala mutants” value in test [1] is listed as “failed to interact”. Besides, the cell apoptosis entry in the test on prostate cancer cells is on record as “elicited cell apoptosis”. For the same molecule, the “Skp2-mediated Akt ubiquitination in vitro” value at Skp2 SCF complex is “attenuated Skp2-mediated Akt ubiquitination”.
